Data as given in US20040116336A1, “Peptide derivatives” (priority 2002, published 2004).
Non-standard residues stand in square brackets, D forms with d. Residues, ends and D or L forms follow the SMILES beside them. Phe(4-Cl) = N[C@@H](Cc1ccc(Cl)cc1)C(=O)O; Cha = N[C@@H](CC1CCCCC1)C(=O)O

What was measured:
[1] = target: T1, APJ (Homo sapiens, UniProt P35414); experiment: Receptor binding assay-1 (125I-labeled compound in Reference Example 1, CHO-A10 membrane fraction); conditions: 125I-labeled compound in Reference Example 1 at 100 pM, room temperature […]
T1 construct: expressed in transfected cells; host or cells: CHO (CHO-A10; clone 6 for the cAMP assay)
T1 sequence (P35414 1-380): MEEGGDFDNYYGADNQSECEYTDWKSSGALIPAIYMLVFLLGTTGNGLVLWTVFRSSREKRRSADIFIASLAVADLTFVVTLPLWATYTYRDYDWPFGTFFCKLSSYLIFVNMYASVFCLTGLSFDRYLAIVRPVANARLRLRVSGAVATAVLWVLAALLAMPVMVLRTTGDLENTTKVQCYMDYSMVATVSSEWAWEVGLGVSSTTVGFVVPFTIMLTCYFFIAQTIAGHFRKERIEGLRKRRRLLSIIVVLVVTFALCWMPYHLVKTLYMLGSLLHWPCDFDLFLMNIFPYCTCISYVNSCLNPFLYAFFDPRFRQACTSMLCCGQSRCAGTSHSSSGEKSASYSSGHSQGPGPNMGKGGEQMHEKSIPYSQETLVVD
Method: This product was mixed with an equal volume of an assay buffer (50 mM Tris-HCl/pH 7.5, 5 mM EDTA, 0.5 mM PMSF, 20 μg/ml leupeptin, 0.1 μg/ml pepstatin A, 4 μg/ml E-64 (Peptide Research Laboratory, Co.), 0.1% bovine serum albumin) and stored at −30° C. before use.
CHO-A10 cells were cultured, recovered with PBS containing 5 mM EDTA from a culture vessel, and suspended in the above-mentioned assay buffer not containing bovine serum albumin. The cells were homogenized 3 times at 12,000 rpm for 15 seconds by a Polytron homogenizer (manufactured by Kinematica Inc.) and then centrifuged (1000×g, 4° C., 10 minutes), and the supernatant was recovered. The precipitates were subjected again to the same procedure as above, and the respective supernatants were combined and centrifuged at 100,000×g, 4° C. for 1 hour, to recover precipitates (membrane fraction). The membrane fraction was suspended again in a small amount of the buffer, homogenized with a Teflon homogenizer and stored at −80° C. before use.
Binding assay was carried out under the following conditions. […] Measurement of non-specific binding was carried out using a well containing 1 μM unlabeled compound in place of the test sample. After the incubation was finished, a cell harvester (Packard) adapted to 96 wells and a filter unit (GF/C, Packard) were used for separation thereby capturing the membrane fraction on the filter. After the filter was sufficiently dried, Microcinti 0 (Packard) was added thereto, and using Top Count (Packard), the amount of the labeled material captured together with the membrane fraction on the filter was measured.

[2] = target: T1, APJ; experiment: Inhibitory activity on forskolin-stimulated cAMP production in CHO-A10 clone 6 cells; type: cell-based; conditions: read-out: EC50
[3] = target: T1, APJ; experiment: Receptor binding assay-2 (compound in Reference Example 2 used); conditions: compound in Reference Example 2 used as ligand; read-out: IC50

Row | Compound | IC50 [1] [nM] | EC50 [2] [nM] | IC50 [3] [nM]
1 | CCCC[C@H](NC(=O)[C@@H]1CCCN1C(=O)CNC(=O)[C@H](CCCCN)NC(=O)[C@H](Cc1c[nH]cn1)NC(=O)[C@H](CO)NC(=O)[C@H](CC(C)C)NC(=O)[C@H](CCCNC(=N)N)NC(=O)[C@@H]1CCCN1C(=O)[C@H](CCCNC(=N)N)NC(=O)[C@H](CCC(N)=O)NC(=O)[C@H](CCCNC(=N)N)NC(=O)[C@@H](N)CCCNC(=N)N)C(=O)N1CCC[C@H]1C(=O)N[C@@H](Cc1ccc(O)cc1)C(=O)O [Compound in Ex. 14] | 2.7 | 0.28 | 0.027
2 | CC(C)C[C@H](NC(=O)[C@H](CCCNC(=N)N)NC(=O)[C@@H]1CCCN1C(=O)[C@@H](N)CCCNC(=N)N)C(=O)N[C@@H](Cc1ccccc1)C(=O)N[C@@H](Cc1c[nH]cn1)C(=O)N[C@@H](CCCCN)C(=O)NCC(=O)N1CCC[C@H]1C(=O)N[C@@H](CC1CCCCC1)C(=O)N1CCC[C@H]1C(=O)N[C@@H](Cc1ccccc1)C(=O)O [Compound in Ex. 15] (H-RPRLFHKGP[Cha]PF-OH; N-terminus and C-terminus assumed) | 8 | 0.46 | 0.13
3 | CSCC[C@H](NC(=O)[C@@H]1CCCN1C(=O)CNC(=O)[C@H](CCCCN)NC(=O)[C@H](Cc1c[nH]cn1)NC(=O)[C@H](Cc1ccccc1)NC(=O)[C@H](CC(C)C)NC(=O)[C@H](CCCNC(=N)N)NC(=O)[C@@H]1CCCN1C(=O)[C@@H](N)CCCNC(=N)N)C(=O)N1CCC[C@H]1C(=O)N[C@@H](Cc1ccc(Cl)cc1)C(=O)O [Compound in Ex. 16] (H-RPRLFHKGPMP[Phe(4-Cl)]-OH; N-terminus and C-terminus assumed) | 8 | 0.38 | 0.066
4 | CSCC[C@H](NC(=O)[C@@H]1CCCN1C(=O)CNC(=O)[C@H](CCCNC(=N)N)NC(=O)[C@H](C)NC(=O)[C@H](CO)NC(=O)[C@H](CC(C)C)NC(=O)[C@H](CCCNC(=N)N)NC(=O)[C@@H]1CCCN1C(=O)[C@H](CCCNC(=N)N)NC(=O)[C@H](CCC(N)=O)NC(=O)[C@H](CCCNC(=N)N)NC(=O)[C@@H](N)CCCNC(=N)N)C(=O)O [Compound in Ex. 18] | 2.5 | 0.18 | 0.023
5 | CSCC[C@H](NC(=O)[C@@H]1CCCN1C(=O)CNC(=O)[C@H](CCCCN)NC(=O)[C@H](Cc1c[nH]cn1)NC(=O)[C@H](CO)NC(=O)[C@H](CC(C)C)NC(=O)[C@H](CCCNC(=N)N)NC(=O)[C@@H]1CCCN1C(=O)[C@H](CCCNC(=N)N)NC(=O)[C@H](CCCCNC(=O)[C@H](CCCNC(=N)N)NC(=O)[C@@H](N)CCCNC(=N)N)NC(=O)[C@H](CCCNC(=N)N)NC(=O)[C@@H](N)CCCNC(=N)N)C(=O)N1CCC[C@H]1C(=O)N[C@@H](Cc1ccccc1)C(=O)O [Compound in Ex. 21] | 2.9 | 0.57 | 0.84
6 | CSCC[C@H](NC(=O)[C@@H]1CCCN1C(=O)CNC(=O)[C@H](CCCCN)NC(=O)[C@H](Cc1c[nH]cn1)NC(=O)[C@H](CO)NC(=O)[C@H](CC(C)C)NC(=O)[C@H](CCCNC(=N)N)NC(=O)[C@@H]1CCCN1C(=O)[C@H](CCCNC(=N)N)NC(=O)[C@H](CCCCN)NC(=O)[C@H](CCCNC(=N)N)NC(=O)[C@@H](N)CCCNC(=N)N)C(=O)N1CCC[C@H]1C(=O)N[C@@H](Cc1ccccc1)C(=O)O [Compound in Ex. 23] | 9.2 | 0.31 | 0.09
7 | CSCC[C@H](NC(=O)[C@@H]1CCCN1C(=O)CNC(=O)[C@H](CCCCN)NC(=O)[C@H](Cc1c[nH]cn1)NC(=O)[C@H](CO)NC(=O)[C@H](CC(C)C)NC(=O)[C@H](CCCNC(=N)N)NC(=O)[C@@H]1CCCN1C(=O)[C@H](CCCNC(=N)N)NC(=O)[C@H](C)NC(=O)[C@H](CCCNC(=N)N)NC(=O)[C@@H](N)CCCNC(=N)N)C(=O)N1CCC[C@H]1C(=O)N[C@@H](Cc1ccccc1)C(=O)O [Compound in Ex. 25] | 34 | 0.25 | 0.067
8 | H-RPRLSARGPMPF-OH [Compound in Ex. 24] | 27 | 0.25 | 0.057
